Results reported in US20240299401A1, “NOVEL REDOX-BASED THERAPEUTIC APPROACH FOR TREATMENT OF CANCER” (THE PENN STATE RESEARCH FOUNDATION, priority 2020, published 2024).
Read-outs that look alike come from different tables or passages of the source.

How the values were obtained:
[1] = test system: 8-MGBA; assay: WST-1 cytotoxicity, 8-MGBA; type: cell-based; conditions: Homo sapiens, 8-MG-BA, 24 h, read-out: Calculated IC50 values
Description: (§1) Two different cytotoxicity/proliferation kit was used in this study i.e., WST-1 proliferation assay kit (Roche, Indianapolis, IN, USA; Cat #28620000) and Cell-titer Glo-luminescent cell viability assay (Promega, WI, USA; Cat #0000348721). Majority of the cell proliferation/cytotoxicity experiments were performed with WST-1 assay. Briefly, cells were seeded at the indicated density for 24 h in 96 well plate, media was replaced, and subsequently treated with the test compounds at different doses. […] Cell titer Glo-assay was additionally performed in certain cases to validate the results from WST-1 assay as outlined above following manufacturer's instructions and luminescence was measured using a FLx100 Luminometer (CLARIOSTAR®, Ortenbery, Germany). […] Other proliferation/cytotoxicity assays were also carried out i.e., Quant™-iT PicoGreen ds DNA assay kit (Thermo Scientific, Rockwood, TN, USA, P7589) following manufacturer's instructions, Trypan blue (Sigma, Ayrshire, UK, T8154) and acid phosphatase assay for validation of cytotoxicity/proliferation data from other assays.

[2] = test system: Hep3B; assay: WST-1 cytotoxicity, Hep3B; type: cell-based; conditions: Homo sapiens, 24 h, read-out: Calculated IC50 values
Description: as §1

[3] = test system: HL60; assay: WST-1 cytotoxicity and synergy analysis, HL60; type: cell-based, human; conditions: Homo sapiens
Description: as §1

[4] = test system: A549; assay: WST-1 cytotoxicity, A549; type: cell-based, human; conditions: Homo sapiens, A549, 24 h, read-out: Calculated IC50 values
Description: as §1

[5] = test system: SHSY5-SY; assay: WST-1 cytotoxicity, SHSY5-SY; type: cell-based; conditions: Homo sapiens, 24 h, read-out: Calculated IC50 values
Description: as §1

[6] = test system: Primary peripheral blood mononuclear cells; assay: WST-1 cytotoxicity, primary PBMCs; conditions: Homo sapiens, PBMC, 24 h, read-out: Calculated IC50 values
[7] = Toxicity in black mice (C57BL/6), 3 weeks; type: in vivo; conditions: sodium selenite or selenocystine 3 mg/kg, alone or with diphenyl diselenide 50 and 100 mg/kg
Description: Black mice (C57BJ/6) mice were treated perorally every second day with either vehicle (canola oil) or diphenyl diselenide at two different dose levels (50 and 100 mg/kg body weight) for 3 weeks. Final body weight and weight of the major organs were measured at necropsy.
Black mice (C57BJ/6) mice were treated with vehicle (PBS i.p. and canola oil p.o.), sodium selenite (3 mg/kg body weight), selenocystine (3 mg/kg body weight), or in combinations with two different doses of diphenyl diselenide (50 and 100 mg/kg body weight) for 3 weeks. Final body weight and weight of the major organs were measured at necropsy.

[8] = test system: SNB-19; assay: WST-1 cytotoxicity, SNB-19; type: cell-based; conditions: Homo sapiens, SNB-19, 24 h, read-out: Calculated IC50 values
Description: as §1

[9] = test system: MCF-7; assay: WST-1 cytotoxicity, MCF-7; type: cell-based, human; conditions: Homo sapiens
Description: as §1

[10] = test system: PANC-1; assay: WST-1 cytotoxicity, PANC-1; type: cell-based; conditions: Homo sapiens, PANC-1, 24 h, read-out: Calculated IC50 values
Description: as §1

[11] = cited from earlier work
[12] = test system: AML193; assay: WST-1 cytotoxicity, AML193; type: cell-based; conditions: Homo sapiens, 24 h, read-out: Calculated IC50 values
Description: as §1

[13] = test system: NB4; assay: WST-1 cytotoxicity, NB4; type: cell-based, human; conditions: Homo sapiens
Description: as §1

[14] = test system: HeLa; assay: WST-1 cytotoxicity, HeLa; type: cell-based; conditions: Homo sapiens, 24 h, read-out: Calculated IC50 values
Description: as §1

[15] = test system: Kasumi 6; assay: WST-1 cytotoxicity, Kasumi 6; type: cell-based; conditions: Homo sapiens, alone, 24 h, read-out: Calculated IC50 values
Description: as §1

[16] = test system: OV2008; assay: WST-1 cytotoxicity, OV2008; type: cell-based; conditions: Homo sapiens, 24 h, read-out: Calculated IC50 values
Description: as §1

[17] = test system: Primary Human hepatocytes; assay: WST-1 cytotoxicity, primary human hepatocytes; conditions: Hepatocyte, 24 h, read-out: Calculated IC50 values
[18] = test system: H661; assay: WST-1 cytotoxicity, H661; type: cell-based, human; conditions: Homo sapiens
Description: as §1

[19] = test system: HepG2; assay: WST-1 cytotoxicity, HepG2; type: cell-based; conditions: Homo sapiens, HepG2, 24 h, read-out: Calculated IC50 values
[20] = test system: H1299; assay: WST-1 cytotoxicity, H1299; type: cell-based, human; conditions: Homo sapiens
Description: as §1

[21] = test system: U1906L; assay: WST-1 cytotoxicity, U1906L; type: cell-based; conditions: Homo sapiens, 24 h, read-out: Calculated IC50 values
Description: as §1

[22] = test system: HUH7; assay: WST-1 cytotoxicity, HUH7; type: cell-based; conditions: Homo sapiens, Huh-7, 24 h, read-out: Calculated IC50 values
Description: as §1

[23] = test system: THP-1; assay: WST-1 cytotoxicity, THP-1; type: cell-based; conditions: Homo sapiens, THP-1, 24 h, read-out: Calculated IC50 values
Description: as §1

[24] = test system: U1906E; assay: WST-1 cytotoxicity, U1906E; type: cell-based; conditions: Homo sapiens, 24 h, read-out: Calculated IC50 values
Description: as §1

[25] = test system: LS174T; assay: WST-1 cytotoxicity, LS174T; type: cell-based; conditions: Homo sapiens, 24 h, read-out: Calculated IC50 values
Description: as §1

[26] = test system: IGROV1; assay: WST-1 cytotoxicity, IGROV1; type: cell-based, human; conditions: Homo sapiens, IGROV-1, 24 h, read-out: Calculated IC50 values
Description: as §1

[27] = test system: A375; assay: WST-1 cytotoxicity, A375; type: cell-based; conditions: Homo sapiens, A-375, 24 h, read-out: Calculated IC50 values
Description: as §1

[28] = at 10.2 mg/m2 intravenously, human

## O=[Se](O)O [Sodium selenite, sodium selenite]
[1]
  IC50: 4.29 µM
[2]
  IC50: 1.65 µM
[3]; HL-60, 24 h, read-out: Calculated IC50 values
  IC50: 16 µM
[3]; HL-60, read-out: Calculated IC50 values of sodium selenite
  IC50: 16 µM
[4]
  IC50: 2.86 µM
[5]
  IC50: 40.3 µM
[6]
  IC50: 35 µM
[7]
  toxic effects (body and organ weight at necropsy): No demonstrated toxic effects could be observed
[8]
  IC50: 5.35 µM
[9]; MCF7, 24 h, read-out: Calculated IC50 values
  IC50: 8.55 µM
[9]; MCF7, read-out: Calculated IC50 values of sodium selenite
  IC50: 8.55 µM
[10]
  IC50: 7.87 µM
[11]; [28]
  dose-limiting toxicity: No dose-limiting toxicity
  peak plasma total selenium concentrations: 15.0 to 23.0 µM
[11]; high dose intravenous administration, earlier clinical studies
  plasma concentration (sodium selenite equivalent) that can be reached: > 20 µM
[11]; intravenously administered, human
  Maximum-tolerated dose levels: 10.2 mg/m2
[11]; intravenously for two weeks, phase I trial NCT01959438
  human tolerance limit: 10 mg sodium selenite/m^2 surface area/day
[12]
  IC50: 6.78 µM
[13]; NB-4, 24 h, read-out: Calculated IC50 values
  IC50: 24.6 µM
[13]; NB-4, read-out: Calculated IC50 values of sodium selenite
  IC50: 24.6 µM
[14]
  IC50: 0.64 µM
[15]
  IC50: 25.7 µM
[16]
  IC50: 3.7 µM
[17]
  IC50: 202 µM
[18]; NCI-H661, 24 h, read-out: Calculated IC50 values
  IC50: 53.1 µM
[18]; NCI-H661, read-out: Calculated IC50 values of sodium selenite
  IC50: 53.1 µM
[19]
  IC50: 7.58 µM
[20]; NCI-H1299, 24 h, read-out: Calculated IC50 values
  IC50: 5.25 µM
[20]; NCI-H1299, read-out: Calculated IC50 values of sodium selenite
  IC50: 5.25 µM
[21]
  IC50: 1.58 µM
[22]
  IC50: 3.53 µM
[23]
  IC50: 0.79 µM
[24]
  IC50: 2.44 µM
[25]
  IC50: 3.6 µM
[26]
  IC50: 5.08 µM
[27]
  IC50: 6.14 µM
